The text below walks through data of patent US8877948B2, “Synthesis process of polyol carbonate from polyols, conducted in using a solvent selective for polyols carbonates” (Arkema France, priority 2008, dated 2014).

The series can be described thus: Solubility of glycerol carbonate, glycerol and urea in selective solvents. The following applies: at 25° C. The class given is physicochemical.

Where only a bound is given, the exact number is not on record here.

Take `CC(C)C#N` [Isobutyronitrile]: for the setting “solute glycerol carbonate in the listed solvent”, the “Solubility of Glycerol Carbonate” value was greater than 500 mg/mL. In addition, the “Solubility of Glycerol” value (solute glycerol in the listed solvent) came to 10 mg/mL. In addition, the “Solubility of Urea” value (solute urea in the listed solvent) came out at 60 mg/mL.
